Patent publication US9809587B2, “Pesticidally active heterocyclic derivatives with sulphur containing substituents” (Syngenta Participations AG, priority 2014, dated 2017)

How the values were obtained:
Format in all cases: in vivo
[1] = system: Plutella xylostella (Diamond Back Moth); test: Plutella xylostella (diamond back moth), treated artificial diet; details: 120 h, application rate of 200 ppm, L2 larvae on artificial diet, 5 days after infestation, read-out: effect in at least one of the two categories (mortality or growth inhibition)
Method in brief: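 Artificial diet treated with aqueous dilutions of DMSO stocks (10′000 ppm stock), dried, then infested with 10-15 L2 larvae per well. Mortality and growth inhibition assessed versus untreated controls 5 days after infestation.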

[2] = system: Euschistus heros (Neotropical Brown Stink Bug); test: Euschistus heros (neotropical brown stink bug), sprayed soybean leaf; details: 120 h, application rate of 200 ppm, N-2 nymphs on soybean leaf, 5 days after infestation
Description: Example B3: Euschistus heros (Neotropical Brown Stink Bug)
Soybean leaf on agar in 24-well microtiter plates were sprayed with aqueous test solutions prepared from 10′000 ppm DMSO stock solutions. After drying the leaf were infested with N-2 nymphs. The samples were assessed for mortality in comparison to untreated samples 5 days after infestation.

[3] = system: Myzus persicae (Green Peach Aphid); test: Myzus persicae (green peach aphid), sprayed sunflower leaf discs; details: foliar, 144 h, application rate of 200 ppm, mixed ages on sunflower leaf discs, 6 days after infestation
Description: Example B4: Myzus persicae (Green Peach Aphid)
(§1) Sunflower leaf discs were placed on agar in a 24-well microtiter plate and sprayed with aqueous test solutions prepared from 10′000 ppm DMSO stock solutions. After drying, the leaf discs were infested with an aphid population of mixed ages. The samples were assessed for mortality 6 days after infestation.

[4] = system: Aedes aegypti (Yellow Fever Mosquito); test: Activity against Aedes aegypti (yellow fever mosquito), dried deposits in tissue culture plates; details: application rate of 200 ppm in ethanol, adult females, after 48 h
Description: Example B12: Activity Against Aedes aegypti (Yellow Fever Mosquito)
Test solutions, at an application rate of 200 ppm in ethanol, were applied to 12-well tissue culture plates. Once the deposits were dry, five, two to five days old adult female Aedes aegypti were added to each well, and sustained with a 10% sucrose solution in a cotton wool plug. Assessment of knockdown was made one hour after introduction, and mortality was assessed at 24 and 48 hours after introduction.
The following compounds gave at least 80% control of Aedes aegypti after 48 h: […]

[5] = system: Bemisia tabaci (Cotton White Fly); test: Bemisia tabaci (cotton white fly), sprayed cotton leaf discs; details: foliar, 144 h, application rate of 200 ppm, adult white flies on cotton leaf discs, 6 days after incubation
Description: Example B1: Bemisia tabaci (Cotton White Fly)
Cotton leaf discs were placed on agar in 24-well microtiter plates and sprayed with aqueous test solutions prepared from 10′000 ppm DMSO stock solutions. After drying the leaf discs were infested with adult white flies. The samples were checked for mortality 6 days after incubation.

[6] = system: Spodoptera littoralis (Egyqptian Cotton Leaf Worm); test: Spodoptera littoralis (Egyptian cotton leaf worm), compound in agar taken up by lettuce roots; details: 144 h, test rate of 12.5 ppm, uptake by lettuce roots from agar, 6 days after infestation, read-out: effect in at least one of the three categories (mortality, anti-feedancy, or growth inhibition)
Source text: Example B8: Spodoptera littoralis (Egyqptian Cotton Leaf Worm)
Test compounds were applied by pipette from 10′000 ppm DMSO stock solutions into 24-well plates and mixed with agar. Lettuce seeds were placed on the agar and the multi well plate was closed by another plate which contains also agar. After 7 days the roots have absorbed the compound and the lettuce has grown into the lid plate. The lettuce leafs were now cut off into the lid plate. Spodoptera eggs were pipetted through a plastic stencil on a humid gel blotting paper and the plate closed with it. The samples were assessed for mortality, anti-feedant effect and growth inhibition in comparison to untreated samples 6 days after infestation.
The following compounds gave an effect of at least 80% in at least one of the three categories (mortality, anti-feedancy, or growth inhibition) at a test rate of 12.5 ppm: […]

[7] = system: Spodoptera littoralis (Egyqptian Cotton Leaf Worm); test: Spodoptera littoralis (Egyptian cotton leaf worm), sprayed cotton leaf discs; details: foliar, 72 h, application rate of 200 ppm, L1 larvae on cotton leaf discs, 3 days after infestation
Method in brief: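 Cotton leaf discs on agar were sprayed with aqueous dilutions made from 10′000 ppm DMSO stocks, then infested after drying with five L1 larvae. Mortality, anti-feedant effect and growth inhibition were scored against untreated discs 3 days after infestation. Control means at least one of these exceeds the untreated sample.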

[8] = system: Diabrotica balteata (Corn Root Worm); test: Diabrotica balteata (corn root worm), sprayed maize sprouts; details: 96 h, application rate of 200 ppm, L2 larvae on maize sprouts, 4 days after infestation
Description: Example B2: Diabrotica balteata (Corn Root Worm)
Maize sprouts, placed on an agar layer in 24-well microtiter plates were treated with aqueous test solutions prepared from 10′000 ppm DMSO stock solutions by spraying. After drying, the plates were infested with L2 larvae (6 to 10 per well). The samples were assessed for mortality and growth inhibition in comparison to untreated samples 4 days after infestation.

[9] = system: Myzus persicae (Green Peach Aphid); test: Myzus persicae (green peach aphid), roots of pea seedlings in test solution; details: 144 h, test rate of 24 ppm, roots of infested pea seedlings in test solution, 6 days
Description: Example B5: Myzus persicae (Green Peach Aphid)
Roots of pea seedlings infested with an aphid population of mixed ages were placed directly in the aqueous test solutions prepared from 10′000 DMSO stock solutions. The samples were assessed for mortality 6 days after placing seedlings in test solutions.

[10] = system: Frankliniella occidentalis (Western Flower Thrips); test: Frankliniella occidentalis (western flower thrips), sprayed sunflower leaf discs; details: foliar, 168 h, application rate of 200 ppm, mixed ages on sunflower leaf discs, 7 days after infestation
Description: Example B11: Frankliniella occidentalis (Western Flower Thrips)
as §1, with “in” for “in a”, “plates” for “plate”, “[…]” for “10′000 ppm”, “drying” for “drying,”, “a Frankliniella” for “an aphid”, “7” for “6”

[11] = system: Thrips tabaci (Onion Thrips); test: Thrips tabaci (onion thrips), sprayed sunflower leaf discs; details: foliar, 144 h, application rate of 200 ppm, mixed ages on sunflower leaf discs, 6 days after infestation
Description: Example B10: Thrips tabaci (Onion Thrips)
as §1, with “in” for “in a”, “plates” for “plate”, “drying” for “drying,”, “a thrips” for “an aphid”

CCS(=O)(=O)c1cc(-n2ccc(C(F)(F)F)n2)cnc1-c1nc2cc(C(F)(F)F)ncc2n1C [Compound P2, 2-[3-ethylsulfonyl-5-[3-(trifluoromethyl)pyrazol-1-yl]-2-pyridyl]-3-methyl-6-(trifluoromethyl)imidazo[4,5-c]pyridine]
≥ 80%: percent effect (mortality or growth inhibition) at 200 ppm [1] | mortality at 200 ppm [2] | mortality at 200 ppm [3] | pest or weed control at 200 ppm [4] | mortality at 200 ppm [5] | percent control (mortality, anti-feedancy or growth inhibition) at 12.5 ppm [6] | percent control (mortality, anti-feedant effect or growth inhibition) at 200 ppm [7] | mortality at 200 ppm [8]

CCS(=O)(=O)c1cc(-c2ccc(C(F)(F)F)nc2)cnc1-c1nc2cc(C(F)(F)F)ncc2n1C [Compound P5]
≥ 80%: percent effect (mortality or growth inhibition) at 200 ppm [1] | mortality at 200 ppm [2] | mortality at 200 ppm [3] | mortality at 24 ppm [9] | mortality at 200 ppm [5] | percent control (mortality, anti-feedancy or growth inhibition) at 12.5 ppm [6] | percent control (mortality, anti-feedant effect or growth inhibition) at 200 ppm [7] | mortality at 200 ppm [10] | mortality at 200 ppm [8]

CCS(=O)(=O)c1cc(-c2ccccn2)cnc1-c1nc2cc(C(F)(F)F)ncc2n1C [Compound P18]
≥ 80%: percent effect (mortality or growth inhibition) at 200 ppm [1] | mortality at 200 ppm [2] | mortality at 200 ppm [3] | mortality at 24 ppm [9] | pest or weed control at 200 ppm [4] | percent control (mortality, anti-feedancy or growth inhibition) at 12.5 ppm [6] | percent control (mortality, anti-feedant effect or growth inhibition) at 200 ppm [7] | mortality at 200 ppm [10]

CCS(=O)(=O)c1cc(-c2ccc(C(F)(F)F)cn2)cnc1-c1nc2cc(C(F)(F)F)ncc2n1C [Compound P19]
≥ 80%: percent effect (mortality or growth inhibition) at 200 ppm [1] | mortality at 200 ppm [2] | mortality at 200 ppm [3] | pest or weed control at 200 ppm [4] | mortality at 200 ppm [5] | percent control (mortality, anti-feedancy or growth inhibition) at 12.5 ppm [6] | percent control (mortality, anti-feedant effect or growth inhibition) at 200 ppm [7] | mortality at 200 ppm [10] | mortality at 200 ppm [8]

CCS(=O)(=O)c1cc(-c2cccc[n+]2O)cnc1-c1nc2cc(C(F)(F)F)ncc2n1C [Compound P56]
≥ 80%: percent effect (mortality or growth inhibition) at 200 ppm [1] | mortality at 200 ppm [2] | mortality at 200 ppm [3] | mortality at 24 ppm [9] | percent control (mortality, anti-feedancy or growth inhibition) at 12.5 ppm [6] | percent control (mortality, anti-feedant effect or growth inhibition) at 200 ppm [7] | mortality at 200 ppm [10] | mortality at 200 ppm [8]

CCS(=O)(=O)c1cc(-c2ccnc(F)c2)cnc1-c1nc2cc(C(F)(F)F)ncc2n1C [Compound P70]
≥ 80%: percent effect (mortality or growth inhibition) at 200 ppm [1] | mortality at 200 ppm [2] | mortality at 200 ppm [3] | mortality at 24 ppm [9] | mortality at 200 ppm [5] | percent control (mortality, anti-feedancy or growth inhibition) at 12.5 ppm [6] | percent control (mortality, anti-feedant effect or growth inhibition) at 200 ppm [7] | mortality at 200 ppm [10] | mortality at 200 ppm [8]

CCS(=O)(=O)c1cc(-n2ccc(Cl)n2)cnc1-c1nc2cc(C(F)(F)F)ncc2n1C [Compound P88]
≥ 80%: percent effect (mortality or growth inhibition) at 200 ppm [1] | mortality at 200 ppm [2] | mortality at 200 ppm [3] | pest or weed control at 200 ppm [4] | mortality at 200 ppm [5] | percent control (mortality, anti-feedancy or growth inhibition) at 12.5 ppm [6] | percent control (mortality, anti-feedant effect or growth inhibition) at 200 ppm [7] | mortality at 200 ppm [8]

CCS(=O)(=O)c1cc(-c2ncccn2)ccc1-c1nc2cc(C(F)(F)F)ncc2n1C [Compound P89]
≥ 80%: percent effect (mortality or growth inhibition) at 200 ppm [1] | mortality at 200 ppm [2] | mortality at 200 ppm [3] | pest or weed control at 200 ppm [4] | percent control (mortality, anti-feedancy or growth inhibition) at 12.5 ppm [6] | percent control (mortality, anti-feedant effect or growth inhibition) at 200 ppm [7] | mortality at 200 ppm [10] | mortality at 200 ppm [8]

CCS(=O)(=O)c1cc(-n2ccc(C(F)(F)F)n2)ccc1-c1nc2cc(C(F)(F)F)ncc2n1C [Compound P90]
≥ 80%: percent effect (mortality or growth inhibition) at 200 ppm [1] | mortality at 200 ppm [2] | mortality at 200 ppm [3] | pest or weed control at 200 ppm [4] | mortality at 200 ppm [5] | percent control (mortality, anti-feedancy or growth inhibition) at 12.5 ppm [6] | percent control (mortality, anti-feedant effect or growth inhibition) at 200 ppm [7] | mortality at 200 ppm [8]

CCS(=O)(=O)c1cc(-c2ccc(C#N)cn2)cnc1-c1nc2cc(C(F)(F)F)ncc2n1C [Compound P91]
≥ 80%: percent effect (mortality or growth inhibition) at 200 ppm [1] | mortality at 200 ppm [2] | mortality at 200 ppm [3] | mortality at 200 ppm [5] | percent control (mortality, anti-feedancy or growth inhibition) at 12.5 ppm [6] | mortality at 200 ppm [11] | percent control (mortality, anti-feedant effect or growth inhibition) at 200 ppm [7] | mortality at 200 ppm [10] | mortality at 200 ppm [8]

CCS(=O)(=O)c1cc(-c2cc(Cl)ccn2)cnc1-c1nc2cc(C(F)(F)F)ncc2n1C [Compound P92]
≥ 80%: percent effect (mortality or growth inhibition) at 200 ppm [1] | mortality at 200 ppm [2] | mortality at 200 ppm [3] | pest or weed control at 200 ppm [4] | percent control (mortality, anti-feedancy or growth inhibition) at 12.5 ppm [6] | percent control (mortality, anti-feedant effect or growth inhibition) at 200 ppm [7] | mortality at 200 ppm [10] | mortality at 200 ppm [8]

CCS(=O)(=O)c1cc(-c2cc(C#N)ccn2)cnc1-c1nc2cc(C(F)(F)F)ncc2n1C [Compound P93]
≥ 80%: percent effect (mortality or growth inhibition) at 200 ppm [1] | mortality at 200 ppm [2] | mortality at 200 ppm [3] | pest or weed control at 200 ppm [4] | percent control (mortality, anti-feedancy or growth inhibition) at 12.5 ppm [6] | percent control (mortality, anti-feedant effect or growth inhibition) at 200 ppm [7] | mortality at 200 ppm [10] | mortality at 200 ppm [8]

CCS(=O)(=O)c1cc(-c2nccc(C#N)n2)cnc1-c1nc2cc(C(F)(F)F)ncc2n1C [Compound P101]
≥ 80%: percent effect (mortality or growth inhibition) at 200 ppm [1] | mortality at 200 ppm [2] | mortality at 200 ppm [3] | pest or weed control at 200 ppm [4] | percent control (mortality, anti-feedant effect or growth inhibition) at 200 ppm [7] | mortality at 200 ppm [8]

CCS(=O)(=O)c1cc(-c2ccnc(C(F)(F)F)n2)cnc1-c1nc2cc(C(F)(F)F)ncc2n1C [Compound P108]
≥ 80%: percent effect (mortality or growth inhibition) at 200 ppm [1] | mortality at 200 ppm [2] | mortality at 200 ppm [3] | pest or weed control at 200 ppm [4] | mortality at 200 ppm [5] | percent control (mortality, anti-feedancy or growth inhibition) at 12.5 ppm [6] | percent control (mortality, anti-feedant effect or growth inhibition) at 200 ppm [7] | mortality at 200 ppm [8]
